Reference: patent US8546452B2, “S1P3 receptor antagonist” (TOA Eiyo Ltd., priority 2005, dated 2013)
pIC50: −log10 of the molar value. Like-named read-outs stand apart in the source and are kept apart here.

How the values were obtained:
Format in all cases: cell-based
hS1P3 = hS1P3 (Homo sapiens, UniProt Q99500); experiment: Suppressive effect on S1P-induced increase in [Ca2+]i, CHO-K1 cells expressing S1P3 (Fura 2-AM), IC50; settings: S1P solution 50 nmol/L, read-out: hS1P3 suppression IC50
hS1P1 = molecular target: T1, hS1P1 (Homo sapiens, UniProt P21453); experiment: S1P receptor subtype selectivity, S1P-induced [Ca2+]i increase in CHO-K1 cells stably expressing S1P1 (Calcium3)
T1 construct: expressed in transfected cells
T1 sequence (P21453 whole entry): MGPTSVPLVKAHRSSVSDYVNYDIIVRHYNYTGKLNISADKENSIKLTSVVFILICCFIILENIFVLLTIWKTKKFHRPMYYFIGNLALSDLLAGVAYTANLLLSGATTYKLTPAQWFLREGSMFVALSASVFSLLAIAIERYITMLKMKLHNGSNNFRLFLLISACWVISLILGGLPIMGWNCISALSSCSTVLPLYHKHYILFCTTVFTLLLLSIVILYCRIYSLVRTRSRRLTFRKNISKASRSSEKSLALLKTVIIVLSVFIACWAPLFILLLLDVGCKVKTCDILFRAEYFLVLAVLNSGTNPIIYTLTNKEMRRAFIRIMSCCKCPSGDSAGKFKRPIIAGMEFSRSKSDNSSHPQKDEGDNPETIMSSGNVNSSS
Protocol: (§1) The selectivity to the S1P receptor subtype was examined in the following manner. […] Furthermore, a Calcium3 (Molecular Devices, Inc.) solution prepared in HBSS (+) buffer, which is a fluorescent Ca^2+ indicator, was added, and the cells were incubated for 60 minutes at 37° C. Then, 100 μL of a test compound solution prepared to a concentration of 2×10 μmol/L was added, and the cells were incubated for 20 minutes at 37° C. […] The indicator was prepared and used according to the instruction manual.
(§2) A solution of the test compound was prepared by dissolving each of the test compounds in DMSO to a concentration of 10 mmol/L, and then diluting the solution with an HBSS (+) buffer solution to the predetermined concentration. […] The measurement values were obtained by subtracting the maximum RFU value for the blind test from the maximum RFU values for control or each test compounds. A decrease in the measurement value for the test compound relative to the control was indicated as the suppression rate (%), from which the IC50 value was calculated.

hS1P2 = molecular target: T2, hS1P2 (Homo sapiens, UniProt O95136); experiment: S1P receptor subtype selectivity, S1P-induced [Ca2+]i increase in CHO-K1 cells stably expressing S1P2 (Calcium3)
T2 construct: expressed in transfected cells
T2 sequence (O95136 whole entry): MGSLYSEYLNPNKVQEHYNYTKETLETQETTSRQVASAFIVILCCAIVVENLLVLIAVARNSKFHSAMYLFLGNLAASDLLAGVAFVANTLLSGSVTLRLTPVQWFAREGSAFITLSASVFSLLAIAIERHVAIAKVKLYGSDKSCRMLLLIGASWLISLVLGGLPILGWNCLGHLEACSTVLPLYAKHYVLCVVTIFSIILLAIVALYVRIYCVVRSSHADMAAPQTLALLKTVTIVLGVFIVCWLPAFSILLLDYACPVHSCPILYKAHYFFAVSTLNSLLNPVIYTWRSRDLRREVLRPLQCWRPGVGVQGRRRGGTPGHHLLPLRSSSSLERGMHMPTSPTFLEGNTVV
Protocol: as §1, §2

[1] = 10 μM, CHO-K1 stably expressing S1P1, S1P solution 100 nmol/L, Calcium3, read-out: Suppression rate at 10 μM (%) hS1P1
[2] = 10 μM, CHO-K1 stably expressing S1P2, S1P solution 100 nmol/L, Calcium3, read-out: Suppression rate at 10 μM (%) hS1P2
[3] = CHO-K1, read-out: Suppression rate at 10 μM (%) hS1P1
[4] = CHO-K1, read-out: Suppression rate at 10 μM (%) hS1P2

Sequence of hS1P3 (Q99500 whole entry): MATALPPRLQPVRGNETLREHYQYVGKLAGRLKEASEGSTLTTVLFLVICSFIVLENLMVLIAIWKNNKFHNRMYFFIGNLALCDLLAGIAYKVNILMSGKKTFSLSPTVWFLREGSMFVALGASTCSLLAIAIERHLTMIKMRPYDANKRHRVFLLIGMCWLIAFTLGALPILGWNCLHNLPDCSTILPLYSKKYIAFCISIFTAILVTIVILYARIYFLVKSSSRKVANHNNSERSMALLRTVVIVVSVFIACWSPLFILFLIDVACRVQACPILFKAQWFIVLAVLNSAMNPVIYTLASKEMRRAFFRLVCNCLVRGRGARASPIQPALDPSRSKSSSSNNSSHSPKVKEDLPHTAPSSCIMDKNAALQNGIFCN

## C#Cc1ccc(NN=C(Nc2cccc(F)c2)C(=O)C(C)(C)C)cc1 [Compound 131, 1-(3-fluorophenylamino)-1-(4-ethynylphenylhydrazono)-3,3-dimethyl-2-butanone]
hS1P3
  pIC50: 6.12
hS1P1; [1]
  inhibition at 10 µM: 15.7%
hS1P2; [2]
  inhibition at 10 µM: 24.7%

## CC(C)(C)CC(=O)C(=NNc1ccc(Cl)cc1)Nc1cccc(F)c1 [Compound 113, 1-(4-chlorophenylhydrazono)-1-(3-fluorophenylamino)-4,4-dimethyl-2-pentanone]
hS1P3
  pIC50: 5.75
hS1P1; [1]
  inhibition at 10 µM: 5.9%
hS1P2; [2]
  inhibition at 10 µM: 20.7%

## Cc1ccc(NN=C(Nc2ccc(C)cc2)C(=O)C(C)(C)C)cc1 [Compound 63, 1-(4-methylphenylamino)-1-(4-methylphenylhydrazono)-3,3-dimethyl-2-butanone]
hS1P3
  pIC50: 5.24
hS1P1; [3]
  inhibition at 10 µM: -9.1%
hS1P2; [4]
  inhibition at 10 µM: -1.4%

## CC(C)(C)C(=O)C(=NNc1ccc(F)cc1)Nc1cccc(F)c1 [Compound 53, 1-(3-fluorophenylamino)-1-(4-fluorophenylhydrazono)-3,3-dimethyl-2-butanone]
hS1P3
  pIC50: 5.35
hS1P1; [1]
  inhibition at 10 µM: 27.1%
hS1P2; [2]
  inhibition at 10 µM: 18.5%

## Cc1ccc(NN=C(Nc2ccc(Cl)c(Cl)c2)C(=O)C(C)(C)C)cc1 [Compound 65, 1-(3,4-dichlorophenylamino)-1-(4-methylphenylhydrazono)-3,3-dimethyl-2-butanone]
hS1P3
  pIC50: 6.17
hS1P1; [1]
  inhibition at 10 µM: 5.1%
hS1P2; [2]
  inhibition at 10 µM: 10%

## Cc1ccc(NN=C(Nc2ccc(Cl)cc2)C(=O)C(C)(C)C)cc1 [Compound 62, 1-(4-chlorophenylamino)-1-(4-methylphenylhydrazono)-3,3-dimethyl-2-butanone]
hS1P3
  pIC50: 5.76
hS1P1; [3]
  inhibition at 10 µM: -9.7%
hS1P2; [4]
  inhibition at 10 µM: 7.4%

## CCOC(=O)C(=NNc1ccc(Cl)cc1)Nc1ccccc1 [Compound 19, ethyl 1-(4-chlorophenylhydrazono)-1-(phenylamino)acetate]
hS1P3
  pIC50: 5.44
hS1P1; [1]
  inhibition at 10 µM: -25.4%
hS1P2; [2]
  inhibition at 10 µM: -8.6%

## COc1ccc(NC(=NNc2ccc(F)cc2)C(=O)C(C)(C)C)cc1 [Compound 57, 1-(4-fluorophenylhydrazono)-1-(4-methoxyphenylamino)-3,3-dimethyl-2-butanone]
hS1P3
  pIC50: 5.31
hS1P1; [1]
  inhibition at 10 µM: 11.5%
hS1P2; [2]
  inhibition at 10 µM: 15%

## CC(C)(C)C(=O)C(=NNc1ccc(Br)cc1)Nc1ccc(Cl)c(Cl)c1 [Compound 80, 1-(4-bromophenylhydrazono)-1-(3,4-dichlorophenylamino)-3,3-dimethyl-2-butanone]
hS1P3
  pIC50: 6.42
hS1P1; [1]
  inhibition at 10 µM: 20.6%
hS1P2; [2]
  inhibition at 10 µM: 26.3%

## CCC(CC)C(=O)C(=NNc1ccc(Cl)cc1)Nc1cccc(Cl)c1 [Compound 137, 1-(3-chlorophenylamino)-1-(4-chlorophenylhydrazono)-3-ethyl-2-pentanone]
hS1P3
  pIC50: 5.80
hS1P1; [3]
  inhibition at 10 µM: 35.3%
hS1P2; [4]
  inhibition at 10 µM: 30.1%

## CC(C)(C)C(=O)C(=NNc1ccc(Cl)c(Cl)c1)Nc1cccc(F)c1 [Compound 104, 1-(3,4-dichlorophenylhydrazono)-1-(3-fluorophenylamino)-3,3-dimethyl-2-butanone]
hS1P3
  pIC50: 6.37
hS1P1; [1]
  inhibition at 10 µM: 28.3%
hS1P2; [2]
  inhibition at 10 µM: 18.9%

## CC(C)(C)C(=O)C(=NNc1ccc(Cl)cc1)Nc1cccc(Cl)c1 [Compound 133, 1-(3-chlorophenylamino)-1-(4-chlorophenylhydrazono)-3,3-dimethyl-2-butanone]
hS1P3
  pIC50: 6.08
hS1P1; [3]
  inhibition at 10 µM: 16.7%
hS1P2; [4]
  inhibition at 10 µM: 37.7%

## CC(C)(C)C(=O)C(=NNc1cccc(Cl)c1)Nc1cccc(F)c1 [Compound 41, 1-(3-chlorophenylhydrazono)-1-(3-fluorophenylamino)-3,3-dimethyl-2-butanone]
hS1P3
  pIC50: 5.45
hS1P1; [1]
  inhibition at 10 µM: 18.4%
hS1P2; [2]
  inhibition at 10 µM: 27.1%

## CC(C)(C)C(=O)C(=NNc1ccc(Br)cc1)Nc1cccc(F)c1 [Compound 73, 1-(4-bromophenylhydrazono)-1-(3-fluorophenylamino)-3,3-dimethyl-2-butanone]
hS1P3
  pIC50: 5.72
hS1P1; [1]
  inhibition at 10 µM: 5.1%
hS1P2; [2]
  inhibition at 10 µM: 22.3%

## CC(C)(C)CC(=O)C(=NNc1ccc(Cl)cc1)Nc1ccc(Cl)cc1 [Compound 139, 1-(4-chlorophenylamino)-1-(4-chlorophenylhydrazono)-4,4-dimethyl-2-pentanone]
hS1P3
  pIC50: 5.77
hS1P1; [3]
  inhibition at 10 µM: 14.9%
hS1P2; [4]
  inhibition at 10 µM: 40.6%

## CC(C)(C)C(=O)C(=NNc1ccccc1)Nc1ccc(Cl)c(Cl)c1 [Compound 52, 1-(3,4-dichlorophenylamino)-1-(phenylhydrazono)-3,3-dimethyl-2-butanone]
hS1P3
  pIC50: 5.99
hS1P1; [1]
  inhibition at 10 µM: 29.5%
hS1P2; [2]
  inhibition at 10 µM: 26.2%

## CCOC(=O)C(=NNc1ccc(Cl)cc1)Nc1cccc(C#N)c1 [Compound 20, ethyl 1-(4-chlorophenylhydrazono)-1-(3-cyanophenylamino)acetate]
hS1P3
  pIC50: 5.66
hS1P1; [3]
  inhibition at 10 µM: -3.5%
hS1P2; [4]
  inhibition at 10 µM: -4.6%

## Cc1ccc(NN=C(Nc2cc(Cl)cc(Cl)c2)C(=O)C(C)(C)C)cc1 [Compound 64, 1-(3,5-dichlorophenylamino)-1-(4-methylphenylhydrazono)-3,3-dimethyl-2-butanone]
hS1P1; [3]
  inhibition at 10 µM: -1%
hS1P2; [4]
  inhibition at 10 µM: 9.1%

## C#Cc1ccc(NN=C(Nc2cccc(Cl)c2)C(=O)C(C)(C)C)cc1 [Compound 108, 1-(3-chlorophenylamino)-1-(4-ethynylphenylhydrazono)-3,3-dimethyl-2-butanone]
hS1P3
  pIC50: 6.08
hS1P1; [3]
  inhibition at 10 µM: 11.1%
hS1P2; [4]
  inhibition at 10 µM: 15.8%

## Cc1ccc(NN=C(Nc2cccc(F)c2)C(=O)C(C)(C)C)cc1 [Compound 61, 1-(3-fluorophenylamino)-1-(4-methylphenylhydrazono)-3,3-dimethyl-2-butanone]
hS1P3
  pIC50: 5.49
hS1P1; [1]
  inhibition at 10 µM: -2.9%
hS1P2; [2]
  inhibition at 10 µM: 8.1%

## CC(C)(C)C(=O)C(=NNc1ccccc1)Nc1cccc(F)c1 [Compound 49, 1-(3-fluorophenylamino)-1-(phenylhydrazono)-3,3-dimethyl-2-butanone]
hS1P3
  pIC50: 5.27
hS1P1; [1]
  inhibition at 10 µM: 6.6%
hS1P2; [2]
  inhibition at 10 µM: 3.6%

## C#Cc1ccc(NC(=NNc2ccc(Cl)cc2)C(=O)c2ccco2)cc1 [Compound 117, 1-(4-chlorophenylhydrazono)-1-(4-ethynylphenylamino)-2-(2-furyl)-2-ethanone]
hS1P3
  pIC50: 5.63
hS1P1; [3]
  inhibition at 10 µM: 20.4%
hS1P2; [4]
  inhibition at 10 µM: 31.6%

## CC(C)(C)NC(=O)C(=NNc1ccc(Cl)cc1)Nc1cccc(F)c1 [Compound 28, N-tert-butyl-[1-(4-chlorophenylhydrazono)-1-(3-fluorophenylamino)]acetamide]
hS1P3
  pIC50: 5.10
hS1P1; [3]
  inhibition at 10 µM: 14.6%
hS1P2; [4]
  inhibition at 10 µM: 14.2%

## CCCCC(=O)C(=NNc1ccc(Cl)cc1)Nc1ccc(Cl)cc1 [Compound 115, 1-(4-chlorophenylamino)-1-(4-chlorophenylhydrazono)-2-hexanone]
hS1P3
  pIC50: 5.61
hS1P1; [3]
  inhibition at 10 µM: 24.3%
hS1P2; [4]
  inhibition at 10 µM: 27%

## CC(C)(C)C(=O)C(=NNc1ccc(Cl)cc1)Nc1ccc(Cl)c(Cl)c1 [Compound 38, 1-(4-chlorophenylhydrazono)-1-(3,4-dichlorophenylamino)-3,3-dimethyl-2-butanone]
hS1P3
  pIC50: 6.51

## CC(C)(C)C(=O)C(=NNc1ccc(Cl)c(Cl)c1)Nc1cccc(Cl)c1 [Compound 123, 1-(3-chlorophenylamino)-1-(3,4-dichlorophenylhydrazono)-3,3-dimethyl-2-butanone]
hS1P3
  pIC50: 6.47

## CC(C)(C)C(=O)C(=NNc1ccc(F)cc1)Nc1ccc(Cl)c(Cl)c1 [Compound 60, 1-(3,4-dichlorophenylamino)-1-(4-fluorophenylhydrazono)-3,3-dimethyl-2-butanone]
hS1P3
  pIC50: 5.99

## C#Cc1ccc(NN=C(Nc2ccc(Cl)cc2)C(=O)C(C)(C)C)cc1 [Compound 106, 1-(4-chlorophenylamino)-1-(4-ethynylphenylhydrazono)-3,3-dimethyl-2-butanone]
hS1P3
  pIC50: 6.18

## O=C(C(=NNc1ccc(Cl)cc1)Nc1cccc(C(F)(F)F)c1)c1ccco1 [Compound 120, 1-(4-chlorophenylhydrazono)-1-(3-trifluoromethylphenylamino)-2-(2-furyl)-2-ethanone]
hS1P3
  pIC50: 5.26

## O=C(C(=NNc1ccc(Cl)cc1)Nc1cccc(Cl)c1)c1ccccc1 [Compound 11, 2-(3-chlorophenylamino)-2-(4-chlorophenylhydrazono)acetophenone]
hS1P3
  pIC50: 5.27

## CCC(CC)C(=O)C(=NNc1ccc(Cl)cc1)Nc1ccc(Cl)cc1 [Compound 110, 1-(4-chlorophenylamino)-1-(4-chlorophenylhydrazono)-3-ethyl-2-pentanone]
hS1P3
  pIC50: 6.01

## O=C(C(=NNc1ccc(Cl)cc1)Nc1cccc(F)c1)c1ccccc1 [Compound 1, 2-(4-Chlorophenylhydrazono)-2-(3-fluorophenylamino)acetophenone]
hS1P3
  pIC50: 5.17

## CC(C)(C)C(=O)C(=NNc1ccc(Br)cc1)Nc1ccc(Cl)c(F)c1 [Compound 105, 1-(4-bromophenylhydrazono)-1-(4-chloro-3-fluorophenylamino)-3,3-dimethyl-2-butanone]
hS1P3
  pIC50: 6.28
